{"source": "patent US10800781B2", "about": "“Compounds useful as inhibitors of ATR kinase” (Vertex Pharmaceuticals Incorporated, priority 2014, dated 2020)", "key": {"[1]": {"molecular_target": "T1, full-length ATR (Homo sapiens, UniProt Q13535)", "T1 construct": "Assays are carried out at 25° C. in the presence of 5 nM full-length ATR", "T1 sequence (Q13535 whole entry)": "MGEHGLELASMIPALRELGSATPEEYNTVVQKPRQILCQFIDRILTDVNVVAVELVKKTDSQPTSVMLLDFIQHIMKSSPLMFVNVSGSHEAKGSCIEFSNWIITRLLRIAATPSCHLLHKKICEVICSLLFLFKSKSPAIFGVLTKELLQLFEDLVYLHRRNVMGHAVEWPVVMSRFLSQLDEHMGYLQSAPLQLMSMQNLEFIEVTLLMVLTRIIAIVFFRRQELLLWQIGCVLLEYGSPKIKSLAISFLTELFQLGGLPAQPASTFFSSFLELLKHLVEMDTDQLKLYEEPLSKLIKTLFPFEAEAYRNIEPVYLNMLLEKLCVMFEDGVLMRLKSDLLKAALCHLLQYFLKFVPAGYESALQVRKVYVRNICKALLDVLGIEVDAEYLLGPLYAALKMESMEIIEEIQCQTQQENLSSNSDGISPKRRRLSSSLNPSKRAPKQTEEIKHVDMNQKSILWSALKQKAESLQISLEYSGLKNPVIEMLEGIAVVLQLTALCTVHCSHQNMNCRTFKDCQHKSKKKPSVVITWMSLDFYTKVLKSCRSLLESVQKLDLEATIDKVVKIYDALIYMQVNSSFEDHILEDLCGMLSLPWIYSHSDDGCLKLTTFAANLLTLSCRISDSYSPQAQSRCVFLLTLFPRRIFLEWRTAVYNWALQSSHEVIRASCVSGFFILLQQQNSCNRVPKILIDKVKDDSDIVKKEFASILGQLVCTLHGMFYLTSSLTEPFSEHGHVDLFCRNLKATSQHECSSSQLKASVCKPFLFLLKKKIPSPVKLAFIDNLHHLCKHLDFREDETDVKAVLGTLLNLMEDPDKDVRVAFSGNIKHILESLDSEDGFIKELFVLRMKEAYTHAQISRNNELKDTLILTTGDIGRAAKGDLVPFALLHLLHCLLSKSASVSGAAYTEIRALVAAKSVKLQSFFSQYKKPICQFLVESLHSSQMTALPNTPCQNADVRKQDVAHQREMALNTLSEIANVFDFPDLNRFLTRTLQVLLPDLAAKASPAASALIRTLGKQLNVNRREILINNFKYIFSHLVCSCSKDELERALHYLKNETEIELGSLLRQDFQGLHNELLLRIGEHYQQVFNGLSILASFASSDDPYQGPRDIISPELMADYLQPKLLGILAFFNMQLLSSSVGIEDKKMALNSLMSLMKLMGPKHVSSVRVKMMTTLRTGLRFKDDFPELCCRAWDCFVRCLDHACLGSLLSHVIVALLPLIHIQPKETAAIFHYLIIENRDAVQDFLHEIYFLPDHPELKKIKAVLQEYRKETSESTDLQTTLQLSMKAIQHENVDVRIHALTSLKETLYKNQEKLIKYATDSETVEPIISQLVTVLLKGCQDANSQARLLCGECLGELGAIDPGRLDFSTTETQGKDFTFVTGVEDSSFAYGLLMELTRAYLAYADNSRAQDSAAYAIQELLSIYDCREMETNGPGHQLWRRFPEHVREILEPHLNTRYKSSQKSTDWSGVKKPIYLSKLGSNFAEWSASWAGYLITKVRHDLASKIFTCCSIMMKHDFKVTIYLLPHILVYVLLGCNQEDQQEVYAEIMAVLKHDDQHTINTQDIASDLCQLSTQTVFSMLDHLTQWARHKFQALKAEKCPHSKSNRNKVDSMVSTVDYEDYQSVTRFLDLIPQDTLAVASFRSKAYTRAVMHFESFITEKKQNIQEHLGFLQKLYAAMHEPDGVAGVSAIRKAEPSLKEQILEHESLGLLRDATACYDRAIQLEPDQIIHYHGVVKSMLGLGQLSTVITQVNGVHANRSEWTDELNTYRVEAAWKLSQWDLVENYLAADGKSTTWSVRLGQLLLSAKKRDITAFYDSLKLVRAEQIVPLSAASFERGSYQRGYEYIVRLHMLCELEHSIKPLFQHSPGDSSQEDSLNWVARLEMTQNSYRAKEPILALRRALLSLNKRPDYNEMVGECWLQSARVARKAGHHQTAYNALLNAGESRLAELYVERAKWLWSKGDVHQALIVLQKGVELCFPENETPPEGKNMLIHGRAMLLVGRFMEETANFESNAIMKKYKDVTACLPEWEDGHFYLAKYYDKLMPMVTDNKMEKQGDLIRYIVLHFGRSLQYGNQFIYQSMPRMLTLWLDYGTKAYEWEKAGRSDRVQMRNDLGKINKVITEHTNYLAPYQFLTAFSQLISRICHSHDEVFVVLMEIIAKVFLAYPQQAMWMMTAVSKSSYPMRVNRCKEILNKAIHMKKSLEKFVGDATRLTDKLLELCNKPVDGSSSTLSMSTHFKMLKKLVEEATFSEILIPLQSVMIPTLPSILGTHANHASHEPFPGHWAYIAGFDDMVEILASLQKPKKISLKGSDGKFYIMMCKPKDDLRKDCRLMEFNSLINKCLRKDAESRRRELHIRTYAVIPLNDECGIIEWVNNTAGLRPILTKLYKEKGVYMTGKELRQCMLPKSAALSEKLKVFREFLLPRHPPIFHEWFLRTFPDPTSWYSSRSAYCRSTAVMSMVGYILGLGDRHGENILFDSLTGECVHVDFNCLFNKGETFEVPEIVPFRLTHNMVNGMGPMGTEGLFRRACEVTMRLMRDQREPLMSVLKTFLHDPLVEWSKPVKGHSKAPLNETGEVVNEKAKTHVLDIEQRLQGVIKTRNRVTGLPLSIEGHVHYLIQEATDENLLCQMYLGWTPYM", "test": "ATR inhibition assay (radioactive-phosphate incorporation)", "format": "biochemical", "details": "5 nM full-length ATR, 10 μM ATP, 800 μM target peptide, 25° C.; read-out: Ki values (Ki(app)) for inhibiting ATR", "description": "Compounds can be screened for their ability to inhibit ATR kinase using a radioactive-phosphate incorporation assay. Assays are carried out in a mixture of 50 mM Tris/HCl (pH 7.5), 10 mM MgCl2 and 1 mM DTT. Final substrate concentrations are 10 μM [γ-33P]ATP (3mCi 33P ATP/mmol ATP, Perkin Elmer) and 800 μM target peptide (ASELPASQPQPFSAKKK).\nAssays are carried out at 25° C. in the presence of 5 nM full-length ATR. An assay stock buffer solution is prepared containing all of the reagents listed above, with the exception of ATP and the test compound of interest. 13.5 μL of the stock solution is placed in a 96 well plate followed by addition of 2 μL of DMSO stock containing serial dilutions of the test compound (typically starting from a final concentration of 15 μM with 3-fold serial dilutions) in duplicate (final DMSO concentration 7%). The plate is pre-incubated for 10 minutes at 25° C. and the reaction initiated by addition of 15 μL [γ-33P]ATP (final concentration 10 μM).\nThe reaction is stopped after 24 hours by the addition of 30 μL 0.1M phosphoric acid containing 2 mM ATP. […]\nAfter removing mean background values for all of the data points, Ki(app) data are calculated from non-linear regression analysis of the initial rate data using the Prism software package (GraphPad Prism version 3.0cx for Macintosh, GraphPad Software, San Diego Calif., USA)."}, "[2]": {"test_system": "HCT116 colorectal cancer cells", "test": "Cisplatin sensitization assay, 96 h cell viability (MTS)", "format": "cell-based", "details": "compound and Cisplatin added simultaneously", "description": "Compounds can be screened for their ability to sensitize HCT116 colorectal cancer cells to Cisplatin using a 96 h cell viability (MTS) assay. […] Compounds and Cisplatin are then both added simultaneously to the cell media in 2-fold serial dilutions from a top final concentration of 10 μM as a full matrix of concentrations in a final cell volume of 200 μl, and the cells are then incubated at 37° C. in 5% CO2. After 96 h, 40 μl of MTS reagent (Promega G358a) is added to each well and the cells are incubated for 1 h at 37° C. in 5% CO2. Finally, absorbance is measured at 490 nm using a SpectraMax Plus 384 reader (Molecular Devices) and the concentration of compound required to reduce the IC50 of Cisplatin alone by at least 3-fold (to 1 decimal place) can be reported."}}}
{"smiles": "Cn1cncc1-c1c(F)cncc1NC(=O)c1c(N)nn2cc(F)cnc12", "note": "[Compound I-1, 2-amino-6-fluoro-N-(5-fluoro-4-(1-methyl-1H-imidazol-5-yl)pyridin-3-yl)pyrazolo[1,5-a]pyrimidine-3-carboxamide]", "values": [{"measurement": "Ki", "setting": "[1]", "value": "< 1000", "unit": "nM"}, {"measurement": "Cisplatin sensitization values (concentration of compound required to reduce the IC50 of Cisplatin alone by at least 3-fold)", "setting": "[2]", "value": "< 200", "unit": "nM"}]}
